Experimental data from patent publication US20240252677A1, “ONE-COMPONENT DELIVERY SYSTEM FOR NUCLEIC ACIDS” (The Trustees of the University of Pennsylvania, priority 2021, published 2024).
Read-outs that look alike come from different tables or passages of the source. Blank lines part the entries; values can stand above or below the compound they belong to.

Columns and labels:
[1] = Serum stability of DNPs, dimensions in 1% fetal bovine serum by DLS; format: physicochemical
Description: Sample preparation: injected 25 μL ethanol stock solution of IAJD125/155 (80 mg/mL) into the mixture of 462.5 μL acetate buffer (10 mM, pH 4.0) and 12.5 μL Luc-mRNA (4.0 mg/mL in water), followed by vortex for 5 seconds.
Final composition of DNP solution: IAJD125/155 (4.0 mg/mL)+Luc-mRNA (0.1 mg/mL) in 500 μL acetate buffer. The dimension of assemblies in solution was checked by DLS.
DNPs in 1% Serum: Serum (5.5 μL)+[500 μL solution of IAJD (4.0 mg/mL) and Luc-mRNA (0.1 mg/mL].

[2] = Stability of DNPs by DLS after storage at 5° C.; format: physicochemical; set-up: key: Excellent: the original sizes and distribution types remained almost the same after storage; Good: the original sizes and distribution types changed slightly (size difference was less than 100 nm) or the original size remained almost the same but the DLS curve showed more size distributions after storage
Description: The stability of the DNPs as assayed by DLS. All the samples are prepared in acetate buffer. The stabilities of the constructs were ranked: Excellent (in bold)—the original sizes and distribution remains almost the same after storage; Good—the original relatively big sizes became smaller or broad size distribution became narrower; Not stable—the original relatively big sizes or broad size distribution remained almost the similar level, or the original relatively small sizes became bigger or narrow size distribution became broader.

[3] = test system: BALB/c mice; conditions: cited from earlier work
[4] = DNPs in acetate buffer (pH 4.0), no serum, IAJD 4.0 mg/mL + Luc-mRNA 0.1 mg/mL
[5] = Table 18, symmetric IAJDs, results available in the literature
[6] = Table 20, corresponding symmetric IAJDs (literature per Table 18)

SMILES: CCCCCCCCCCCCCCOc1cc(COC(=O)CCCN2CCN(CCO)CC2)cc(OCCCCCCCCCCC)c1 [IAJD 125, 3-(Tetradecyloxy)-5-(undecyloxy)benzyl 4-(4-(2-hydroxyethyl)piperazin-1-yl)butanoate]
PDI ([1]; DNPs in 1% Serum, t = 0 min): 0.234
Size (nm) ([1]; DNPs in 1% Serum, t = 0 min): 207 nm
PDI ([1]; DNPs in 1% Serum, t = 10 min): 0.290
Size (nm) ([1]; DNPs in 1% Serum, t = 10 min): 206 nm
PDI ([1]; DNPs in 1% Serum, t = 20 min): 0.303
Size (nm) ([1]; DNPs in 1% Serum, t = 20 min): 199 nm
PDI ([1]; DNPs in 1% Serum, t = 30 min): 0.256
Size (nm) ([1]; DNPs in 1% Serum, t = 30 min): 197 nm
PDI ([1]; DNPs in 1% Serum, t = 40 min): 0.284
Size (nm) ([1]; DNPs in 1% Serum, t = 40 min): 200 nm
PDI ([1]; DNPs in 1% Serum, t = 50 min): 0.339
Size (nm) ([1]; DNPs in 1% Serum, t = 50 min): 190 nm
PDI ([1]; DNPs in 1% Serum, t = 60 min): 0.258
Size (nm) ([1]; DNPs in 1% Serum, t = 60 min): 194 nm
PDI [1, 4]: 0.273
Size (nm) [1, 4]: 196 nm
Ranking of stability ([2]; after 62 days at 5° C.): Excellent

SMILES: CCCCCCCCCOc1cc(COC(=O)CCCN2CCN(C)CC2)cc(OCCCCCCCCC)c1 [IAJD 77, 3,5-Bis(nonyloxy)benzyl 4-(4-methylpiperazin-1-yl)butanoate]
In vivo activity (total flux, p/s) [3, 5]: 2.44 × 10^6 p/s

SMILES: CCCCCCCCCCCCCCOc1cc(COC(=O)CCCN2CCN(C)CC2)cc(OCCCCCCCCCCCCCC)c1 [IAJD 74, 3,5-Bis(tetradecyloxy)benzyl 4-(4-methylpiperazin-1-yl)butanoate]
In vivo activity (total flux, p/s) [3, 5]: 1.71 × 10^7 p/s
In vivo activity (total flux, p/s) [3, 6]: 1.71 × 10^7 p/s

SMILES: CCCCC(CC)COc1cc(COC(=O)CCCN2CCN(C)CC2)cc(OCC(CC)CCCC)c1 (stereo not shown) [IAJD 76, 3,5-Bis((2-ethylhexyl)oxy)benzyl 4-(4-methylpiperazin-1-yl)butanoate]
In vivo activity (total flux, p/s) [3, 5]: 7.81 × 10^7 p/s

SMILES: CCCCCCCCCCCCCCCCCCOc1cc(COC(=O)CCCN2CCN(C)CC2)cc(OCCCCCCCCCCCCCCCCCC)c1 [IAJD 98, 3,5-Bis(octadecyloxy)benzyl 4-(4-methylpiperazin-1-yl)butanoate]
In vivo activity (total flux, p/s) [3, 5]: 2.06 × 10^6 p/s
In vivo activity (total flux, p/s) [3, 6]: 2.06 × 10^6 p/s

SMILES: CCCCCCCCCCCOc1cc(COC(=O)c2cc(OCCOCCOCCCC(=O)CCCN3CCCCC3)c(OCCOCCOCCOCc3ccccc3)c(OCCOCCOCCOC(=O)CCCN3CCCCC3)c2)cc(OCC(CC)CCCC)c1 (stereo not shown) [IAJD 155]
PDI ([1]; DNPs in 1% Serum, t = 0 min): 0.186
Size (nm) ([1]; DNPs in 1% Serum, t = 0 min): 93 nm
PDI ([1]; DNPs in 1% Serum, t = 10 min): 0.171
Size (nm) ([1]; DNPs in 1% Serum, t = 10 min): 101 nm
PDI ([1]; DNPs in 1% Serum, t = 20 min): 0.186
Size (nm) ([1]; DNPs in 1% Serum, t = 20 min): 105 nm
PDI ([1]; DNPs in 1% Serum, t = 30 min): 0.173
Size (nm) ([1]; DNPs in 1% Serum, t = 30 min): 107 nm
PDI ([1]; DNPs in 1% Serum, t = 40 min): 0.161
Size (nm) ([1]; DNPs in 1% Serum, t = 40 min): 108 nm
PDI ([1]; DNPs in 1% Serum, t = 50 min): 0.174
Size (nm) ([1]; DNPs in 1% Serum, t = 50 min): 111 nm
PDI ([1]; DNPs in 1% Serum, t = 60 min): 0.149
Size (nm) ([1]; DNPs in 1% Serum, t = 60 min): 108 nm
PDI [1, 4]: 0.256
Size (nm) [1, 4]: 83 nm
Ranking of stability ([2]; after 19 days at 5° C.): Excellent

SMILES: CCCCCCCCCCCCCCCOc1cc(COC(=O)CCCN2CCN(C)CC2)cc(OCCCCCCCCCCCCCC)c1 [IAJD 147, 3-(Pentadecyloxy)-5-(tetradecyloxy)benzyl 4-(4-methylpiperazin-1-yl)butanoate]
Ranking of stability ([2]; after 19 days at 5° C.): Excellent

SMILES: CCCCCCCCCCOc1cc(COC(=O)CCCN2CCN(CCO)CC2)cc(OCCCCCCCCCC)c1 [IAJD 91, 3,5-Bis(decyloxy)benzyl 4-(4-(2-hydroxyethyl)piperazin-1-yl)butanoate]
In vivo activity (total flux, p/s) [3, 5]: 9.94 × 10^6 p/s

SMILES: CCCCCCCCCCCCCCCCCOc1cc(COC(=O)CCCN2CCN(CCO)CC2)cc(OCCCCCCCCCCCCCCC)c1 [IAJD 152, 3-(Heptadecyloxy)-5-(pentadecyloxy)benzyl 4-(4-(2-hydroxyethyl)piperazin-1-yl)butanoate]
Ranking of stability ([2]; after 35 days at 5° C.): Excellent

SMILES: CCCCCCCCCCCCCCCCCOc1cc(COC(=O)c2cc(OCCOCCOCCCC(=O)CCCN3CCCCC3)c(OCCOCCOCCOCc3ccccc3)c(OCCOCCOCCOC(=O)CCCN3CCCCC3)c2)cc(OCCCCCCCCCCC)c1 [IAJD 158]
Ranking of stability ([2]; after 19 days at 5° C.): Excellent

SMILES: CCCCCCCCOc1cc(COC(=O)CCCN2CCN(C)CC2)cc(OCCCCCCCC)c1 [IAJD 88, 3,5-Bis(octyloxy)benzyl 4-(4-methylpiperazin-1-yl)butanoate]
In vivo activity (total flux, p/s) [3, 5]: 2.34 × 10^6 p/s

SMILES: CCCCCCCCCCCCCCCOc1cc(COC(=O)CCCN2CCN(CCO)CC2)cc(OCCCCCCCCCCCCCC)c1 [IAJD 148, 3-(Pentadecyloxy)-5-(tetradecyloxy)benzyl 4-(4-(2-hydroxyethyl)piperazin-1-yl)butanoate]
Ranking of stability ([2]; after 19 days at 5° C.): Good

SMILES: CCCCCCCCCCCCCCCCOc1cc(COC(=O)CCCN2CCN(C)CC2)cc(OCCCCCCCCCCCCCCCC)c1 [IAJD 75, 3,5-Bis(hexadecyloxy)benzyl 4-(4-methylpiperazin-1-yl)butanoate]
In vivo activity (total flux, p/s) [3, 5]: 3.37 × 10^7 p/s
In vivo activity (total flux, p/s) [3, 6]: 3.37 × 10^7 p/s

SMILES: CCCCC(CC)COc1cc(COC(=O)CCCN2CCN(CCO)CC2)cc(OCC(CC)CCCC)c1 (stereo not shown) [IAJD 87, 3,5-Bis((2-ethylhexyl)oxy)benzyl 4-(4-(2-hydroxyethyl)piperazin-1-yl)butanoate]
In vivo activity (total flux, p/s) [3, 5]: 3.24 × 10^7 p/s
In vivo activity (total flux, p/s) [3, 6]: 3.24 × 10^7 p/s

SMILES: CCCCCCCCCCCCCCOc1cc(CNC(=O)CCCN2CCN(C)CC2)cc(OCCCCCCCCCCC)c1 [IAJD 133, 4-(4-Methylpiperazin-1-yl)-N-(3-(tetradecyloxy)-5-(undecyloxy)benzyl)butanamide]
Ranking of stability ([2]; after 42 days at 5° C.): Excellent

SMILES: CCCCCCCCCCCCCCCOc1cc(COC(=O)CCCN2CCN(C)CC2)cc(OCCCCCCCCCCC)c1 [IAJD 118, 3-(Pentadecyloxy)-5-(undecyloxy)benzyl 4-(4-methylpiperazin-1-yl)butanoate]
Ranking of stability ([2]; after 75 days at 5° C.): Excellent

Next, values leading:

Ranking of stability ([2]; after 21 days at 5° C.): Excellent
SMILES: CCCCCCCCCCCCCCOc1cc(COC(=O)CCCN2CCN(C)CC2)cc(OCCCCCCCCCCCCC)c1 [IAJD 171, 3-(Tetradecyloxy)-5-(tridecyloxy)benzyl 4-(4-methylpiperazin-1-yl)butanoate]

Ranking of stability ([2]; after 70 days at 5° C.): Excellent
SMILES: CCCCCCCCCCCOc1cc(COC(=O)CCCN2CCN(CCO)CC2)cc(OCCCCCCCCCC)c1 [IAJD 115, 3-(Decyloxy)-5-(undecyloxy)benzyl 4-(4-(2-hydroxyethyl)piperazin-1-yl)butanoate]

Ranking of stability ([2]; after 62 days at 5° C.): Excellent
SMILES: CCCCCCCCCCCOc1cc(COC(=O)CCCN2CCN(CCO)CC2)cc(OCCCCCCCCC)c1 [IAJD 122, 3-(Nonyloxy)-5-(undecyloxy)benzyl 4-(4-(2-hydroxyethyl)piperazin-1-yl)butanoate]

Ranking of stability ([2]; after 35 days at 5° C.): Excellent
SMILES: CCCCCCCCCCCCCCCCCOc1cc(COC(=O)CCCN2CCN(C)CC2)cc(OCCCCCCCCCCCCCCC)c1 [IAJD 151, 3-(Heptadecyloxy)-5-(pentadecyloxy)benzyl 4-(4-methylpiperazin-1-yl)butanoate]

Ranking of stability ([2]; after 70 days at 5° C.): Excellent
SMILES: CCCCCCCCCCCCCCCCCCOc1cc(COC(=O)CCCN2CCN(CCO)CC2)cc(OCCCCCCCCCCC)c1 [IAJD 128, 3-(Octadecyloxy)-5-(undecyloxy)benzyl 4-(4-(2-hydroxyethyl)piperazin-1-yl)butanoate]

Ranking of stability ([2]; after 19 days at 5° C.): Excellent
SMILES: CCCCCCCCCCCCCCCCOc1cc(COC(=O)CCCN2CCN(CCO)CC2)cc(OCCCCCCCCCCCCCCC)c1 [IAJD 150, 3-(Hexadecyloxy)-5-(pentadecyloxy)benzyl 4-(4-(2-hydroxyethyl)piperazin-1-yl)butanoate]

Ranking of stability ([2]; after 62 days at 5° C.): Good
SMILES: CCCCCCCCCCCCCCCCCOc1cc(COC(=O)CCCN2CCN(CCO)CC2)cc(OCCCCCCCCCCC)c1 [IAJD 127, 3-(Heptadecyloxy)-5-(undecyloxy)benzyl 4-(4-(2-hydroxyethyl)piperazin-1-yl)butanoate]

Ranking of stability ([2]; after 62 days at 5° C.): Excellent
SMILES: CCCCCCCCCCCCCOc1cc(COC(=O)CCCN2CCN(C)CC2)cc(OCCCCCCCCCCC)c1 [IAJD 116, 3-(Tridecyloxy)-5-(undecyloxy)benzyl 4-(4-methylpiperazin-1-yl)butanoate]

Ranking of stability ([2]; after 27 days at 5° C.): Excellent
SMILES: CCCCCCCCCCCCCCCOc1cc(COC(=O)CCCN2CCN(CCO)CC2)cc(OCCCCCCCCCCCC)c1 [IAJD 144, 3-(Dodecyloxy)-5-(pentadecyloxy)benzyl 4-(4-(2-hydroxyethyl)piperazin-1-yl)butanoate]

Ranking of stability ([2]; after 70 days at 5° C.): Excellent
SMILES: CCCCCCCCCCCCCCCCCOc1cc(COC(=O)CCCN2CCN(C)CC2)cc(OCCCCCCCCCCC)c1 [IAJD 126, 3-(Heptadecyloxy)-5-(undecyloxy)benzyl 4-(4-methylpiperazin-1-yl)butanoate]

Ranking of stability ([2]; after 19 days at 5° C.): Excellent
SMILES: CCCCCCCCCCCCCCCOc1cc(COC(=O)c2cc(OCCOCCOCCCC(=O)CCCN3CCCCC3)c(OCCOCCOCCOCc3ccccc3)c(OCCOCCOCCOC(=O)CCCN3CCCCC3)c2)cc(OCCCCCCCCCCC)c1 [IAJD 157]

Ranking of stability ([2]; after 27 days at 5° C.): Excellent
SMILES: CCCCCCCCCCCCCCCOc1cc(COC(=O)CCCN2CCN(C)CC2)cc(OCCCCCCCCCCCC)c1 [IAJD 143, 3-(Dodecyloxy)-5-(pentadecyloxy)benzyl 4-(4-methylpiperazin-1-yl)butanoate]
